Consider 61 compounds from patent US11110091B2, “Modulators of toll-like receptors” (Gilead Sciences, Inc., priority 2008, dated 2021).

In the assay the test system is human Peripheral Blood Mononuclear Cell (PMBC). Put plainly: PBMC assay: cytokine (IFN-α) stimulation at 24 hours. To be noted: lowest concentration stimulating IFN-α production at least 3-fold over background, Luminex, read-out: IFN MEC. Format: cell-based. How it is done: Assays were conducted to determine cytokine stimulation at 24 hours from human Peripheral Blood Mononuclear Cell (PMBC) using the compounds of the present invention. The assays were run in duplicate, with 8-point, half-log dilution curves. The compounds of the present invention were diluted from 10 mM DMSO solution. Cell supernatants are assayed directly for IFNα and 1:10 dilution for TNFα. The assays were performed in a similar fashion as described in Bioorg. […] Specifically, cryo-preserved PBMCs were thawed and seeded 96 well plates with 750,000 cells/well in 190 μL/well cell media. The PBMCs were then incubated for 1 hour at 37° C. at 5% CO2. Then, the compounds of the present invention were added in 10 μL cell media at 8 point, half-log dilution titration. The plates were incubated at 37° C. and 5% CO2 for 24 hours and then spinned at 1200 rpm for 10 min, which was followed by collecting supernatant and storing the same at −80° C. Cytokine secretion was assayed with Luminex and Upstate multi-plex kits, using a Luminex analysis instrument. The IFN-α MEC value for a compound was the lowest concentration at which the compound stimulated IFN-α production at least 3-fold over the background as determined using the assay method above.
Consider `CCC[C@@H](C)Oc1nc(N)c2c(n1)N(Cc1ccc(CN3CCCC3)cc1)CC(=O)N2` [Example 60], for which the minimal effective concentration is above 0.03 µM.

For `CCCCCOc1nc(N)c2c(n1)N(Cc1cccc(CN3CCCC3)c1)CC(=O)N2` [Example 12], the minimal effective concentration was above 0.03 µM.

With `COP(=O)(CCOc1nc(N)c2c(n1)N(Cc1cccc(CN3CCCC3)c1)CC(=O)N2)OC` [Example 18], the minimal effective concentration was above 0.03 µM.

With `Nc1nc(OCCOc2ccccc2)nc2c1NC(=O)CN2Cc1cccc(CN2CCCC2)c1` [Example 23], the minimal effective concentration is above 0.03 µM.

As for `COC[C@@H](C)Oc1nc(N)c2c(n1)N(Cc1cccc(CN3CCCC3)c1)CC(=O)N2` [Example 88], the minimal effective concentration is at most 0.03 µM.

On to `Cc1ccc(CN2CC(=O)Nc3c(N)nc(OCC4CCOC4)nc32)cn1` (stereo not shown) [Example 115], for which the minimal effective concentration was above 0.03 µM.

Regarding `COC[C@H](C)Nc1nc(N)c2c(n1)N(Cc1cccc(CN3CCCC3)c1)CC(=O)N2` [Example 37], the minimal effective concentration was at most 0.03 µM.

For `CS(=O)(=O)CCOc1nc(N)c2c(n1)N(Cc1cccc(CN3CCCC3)c1)CC(=O)N2` [Example 20], the minimal effective concentration was above 0.03 µM.

Consider `CC(C)(C)CNc1nc(N)c2c(n1)N(Cc1cccc(CN3CCCC3)c1)CC(=O)N2` [Example 34], for which the minimal effective concentration is above 0.03 µM.

In the case of `Nc1nc(N[C@@H]2CCOC2)nc2c1NC(=O)CN2Cc1cccc(CN2CCCC2)c1` [Example 46], the minimal effective concentration was above 0.03 µM.

Take `CCCC(C)Oc1nc(N)c2c(n1)N(Cc1cccc(CN3CCCC3)c1)CC(=O)N2` (stereo not shown) [Example 24]: the minimal effective concentration was at most 0.03 µM.

With `Nc1nc(O)nc2c1NC(=O)CN2Cc1cccc(CN2CCCC2)c1` [Example 63], the minimal effective concentration was above 0.03 µM.

As for `Nc1nc(OCCCC(F)(F)F)nc2c1NC(=O)CN2Cc1cccc(CN2CCCC2)c1` [Example 56], the minimal effective concentration was at most 0.03 µM.

Regarding `CCCCOc1nc(N)c2c(n1)N(Cc1ccc3c(c1)CCN(CC)C3)CC(=O)N2` [Example 104], the minimal effective concentration is at most 0.03 µM.

As for `CCCCOc1nc(N)c2c(n1)N(Cc1cccc(CN3CCCC3)c1)C1(CC1)C(=O)N2` [Example 3, 4-Amino-2-n-butoxy-7-(1′″,2′″-ethylidene)-8-[3′-(pyrrolidin-1″-ylmethyl)-benzyl]-5,6,7,8-tetrahydropteridine-6-one], the minimal effective concentration is above 0.03 µM.

Consider `CCCCOc1nc(N)c2c(n1)N(Cc1ccc(C(F)(F)F)nc1)CC(=O)N2` [Example 117], for which the minimal effective concentration was above 0.03 µM.

On to `CCCCOc1nc(N)c2c(n1)N(Cc1ccc3c(c1)CNCC3)CC(=O)N2` [Example 51], for which the minimal effective concentration was at most 0.03 µM.

`CCCCOc1nc(N)c2[nH]c(=O)c(=O)n(Cc3ccc(-c4ccc(CN5CCCC5)cc4)cc3)c2n1` [Example 101]: the minimal effective concentration was above 0.03 µM.

As to `Nc1nc(NC2CCCC2)nc2c1NC(=O)CN2Cc1cccc(CN2CCCC2)c1` [Example 41], the minimal effective concentration is at most 0.03 µM.

In the case of `Nc1nc(OCC2CCCO2)nc2c1NC(=O)CN2Cc1cccc(CN2CCCC2)c1` (stereo not shown) [Example 29], the minimal effective concentration is above 0.03 µM.

For the compound `Nc1nc(OCC2CCOCC2)nc2c1NC(=O)CN2Cc1cccc(CN2CCCC2)c1` [Example 30], the minimal effective concentration is at most 0.03 µM.

On to `Nc1nc(NC2CCC2)nc2c1NC(=O)CN2Cc1cccc(CN2CCCC2)c1` [Example 40], for which the minimal effective concentration was at most 0.03 µM.

As for `CC(C)(C)COc1nc(N)c2c(n1)N(Cc1cccc(CN3CCCC3)c1)CC(=O)N2` [Example 14], the minimal effective concentration is above 0.03 µM.

Regarding `Nc1nc(OCCC2CC2)nc2c1NC(=O)CN2Cc1cccc(CN2CCCC2)c1` [Example 9, 4-amino-2-{2′″-(cyclopropyl)ethoxy}-8-[3′-(pyrrolidin-1″-ylmethyl)-benzyl]-5,6,7,8-tetrahydropteridin-6-one], the minimal effective concentration was at most 0.03 µM.

On to `COCCOc1nc(N)c2[nH]c(=O)c(=O)n(Cc3cccc(CN4CCCC4)c3)c2n1` [Example 91], for which the minimal effective concentration was above 0.03 µM.

In the case of `COCCOc1nc(N)c2c(n1)N(Cc1ccc(-c3ccc(CN4CCCC4)cc3)cc1)CC(=O)N2` [Example 98], the minimal effective concentration is at most 0.03 µM.

Consider `CCCCOc1nc(N)c2c(n1)N(Cc1ccc3c(c1)CCN(C(C)C)C3)CC(=O)N2` [Example 105], for which the minimal effective concentration is at most 0.03 µM.

`Cc1ccc(CN2CC(=O)Nc3c(N)nc(OCC4CCCO4)nc32)cn1` (stereo not shown) [Example 114]: the minimal effective concentration was above 0.03 µM.

Turning to `Nc1nc(OCCN2CCCC2=O)nc2c1NC(=O)CN2Cc1cccc(CN2CCCC2)c1` [Example 22], the minimal effective concentration was above 0.03 µM.

Regarding `CCCCNc1nc(N)c2c(n1)N(Cc1cccc(CN3CCCC3)c1)CCC(=O)N2` [Example 76], the minimal effective concentration was above 0.03 µM.

Turning to `COCCOc1nc(N)c2c(n1)N(Cc1cccc(CN3CCCC3)c1)CC(=O)N2` [Example 2], the minimal effective concentration was at most 0.03 µM.

Regarding `Nc1nc(OCc2cccnc2)nc2c1NC(=O)CN2Cc1cccc(CN2CCCC2)c1` [Example 16], the minimal effective concentration is above 0.03 µM.

Turning to `CCC[C@@H](C)Oc1nc(N)c2c(n1)N(Cc1cccc(CN3CCCC3)c1)CC(=O)N2` [Example 58], the minimal effective concentration is above 0.03 µM.

For `CCCCOc1nc(N)c2c(n1)N(C(C)c1ccc(CN3CCCC3)cc1)CC(=O)N2` (stereo not shown) [Example 74], the minimal effective concentration is above 0.03 µM.

As for `CCCN(C)C(=O)c1nc(N)c2c(n1)N(Cc1cccc(CN3CCCC3)c1)CC(=O)N2` [Example 81], the minimal effective concentration is above 0.03 µM.

Take `Nc1nc(OCC2CCOC2)nc2c1NC(=O)CN2Cc1cccc(CN2CCCC2)c1` (stereo not shown) [Example 17]: the minimal effective concentration is above 0.03 µM.

For the compound `Nc1nc(OCC2CCCCC2)nc2c1NC(=O)CN2Cc1cccc(CN2CCCC2)c1` [Example 13], the minimal effective concentration is above 0.03 µM.

Take `CCC(CC)Oc1nc(N)c2c(n1)N(Cc1cccc(CN3CCCC3)c1)CC(=O)N2` [Example 25]: the minimal effective concentration is at most 0.03 µM.

On to `CCCCOc1nc(N)c2c(n1)N(Cc1cccc(CN3CCCC3)c1)C(O)C(=O)N2` (stereo not shown) [Example 82], for which the minimal effective concentration is at most 0.03 µM.

As for `CCCCOc1nc(N)c2c(n1)N(Cc1ccc(C)nc1)CC(=O)N2` [Example 111], the minimal effective concentration is above 0.03 µM.

`COCCNc1nc(N)c2c(n1)N(Cc1cccc(CN3CCCC3)c1)CC(=O)N2` [Example 33]: the minimal effective concentration was above 0.03 µM.

For the compound `CCOC(=O)CN(Cc1cccc(CN2CCCC2)c1)c1nc(O[C@@H](C)COC)nc(N)c1[N+](=O)[O-]` [Compound 86], the minimal effective concentration is at most 0.03 µM.

As for `CCCCOc1nc(N)c2c(n1)N(Cc1ccc(CN3CCCC3)cc1)C(C)C(=O)N2` (stereo not shown) [Example 65], the minimal effective concentration was at most 0.03 µM.

Turning to `COCCOc1nc(N)c2c(n1)N(Cc1ccc(-c3cccc(CN4CCCC4)c3)cc1)CC(=O)N2` [Example 94], the minimal effective concentration is at most 0.03 µM.

Regarding `Nc1nc(OCCCCO)nc2c1NC(=O)CN2Cc1cccc(CN2CCCC2)c1` [Example 27], the minimal effective concentration is above 0.03 µM.

Take `CCCCOc1nc(N)c2c(n1)N(Cc1cccc(CN3CCCC3)c1)CCC(=O)N2` [Example 50]: the minimal effective concentration was above 0.03 µM.

On to `CCOc1nc(N)c2c(n1)N(Cc1cccc(CN3CCCC3)c1)CC(=O)N2` [Example 62], for which the minimal effective concentration is above 0.03 µM.

Consider `CCCN(C)C(=O)c1nc(N)c2[nH]c(=O)c(=O)n(Cc3cccc(CN4CCCC4)c3)c2n1` [Example 92], for which the minimal effective concentration is above 0.03 µM.

Consider `CCCCOc1nc(N)c2c(n1)N(Cc1cccc(CN3CCC(C(=O)OC)CC3)c1)CC(=O)N2` [Example 54], for which the minimal effective concentration is above 0.03 µM.

For `Nc1nc(NC2CCCCC2)nc2c1NC(=O)CN2Cc1cccc(CN2CCCC2)c1` [Example 36], the minimal effective concentration is above 0.03 µM.

As for `CCCCOc1nc(N)c2c(n1)N(Cc1ccccc1CN1CCCC1)CC(=O)N2` [Example 57], the minimal effective concentration is above 0.03 µM.

Consider `Nc1nc(OCC2CC2)nc2c1NC(=O)CN2Cc1cccc(CN2CCCC2)c1` [Example 5, 4-amino-2-{(cyclopropyl)methoxy}-8-[3′-(pyrrolidin-1″-ylmethyl)-benzyl]-5,6,7,8-tetrahydropteridin-6-one], for which the minimal effective concentration is above 0.03 µM.

In the case of `CCCCOc1nc(N)c2c(n1)N(Cc1cccc(CNc3ccccn3)c1)CC(=O)N2` [Example 80], the minimal effective concentration is above 0.03 µM.

On to `Nc1nc(NC2CC2)nc2c1NC(=O)CN2Cc1cccc(CN2CCCC2)c1` [Example 35], for which the minimal effective concentration is above 0.03 µM.

In the case of `COC[C@H](C)Oc1nc(N)c2c(n1)N(Cc1cccc(CN3CCCC3)c1)CC(=O)N2` [Example 87], the minimal effective concentration was at most 0.03 µM.

On to `CCCCOc1nc(N)c2c(n1)N(Cc1cccc(CN3CCN(C)CC3)c1)CC(=O)N2` [Example 79], for which the minimal effective concentration was at most 0.03 µM.

Take `CCCCOc1nc(N)c2c(n1)N(CCCN(Cc1ccccc1)C(=O)CN1CCN(C)CC1)CC(=O)N2` [Example 110]: the minimal effective concentration was at most 0.03 µM.

`CCCCOc1nc(N)c2c(n1)N(Cc1cccc(CN3CCCC3)c1)C(C)C(=O)N2` (stereo not shown) [Example 64]: the minimal effective concentration was above 0.03 µM.

`CCCCOc1nc(N)c2c(n1)N(CCC1CCN(CC3CC3)CC1)CC(=O)N2` [Example 113]: the minimal effective concentration is at most 0.03 µM.

For `CCCCOc1nc(N)c2c(n1)N(Cc1ccc(-c3ccc(CN4CCCC4)cc3)cc1)CC(=O)N2` [Example 100], the minimal effective concentration is at most 0.03 µM.

Turning to `CCCCOc1nc(N)c2c(n1)N(Cc1ccnc(N3CCOCC3)c1)CC(=O)N2` [Example 66], the minimal effective concentration is above 0.03 µM.
